Patent publication US9492471B2, “Methods of treating a disease or disorder associated with Bruton'S Tyrosine Kinase” (Celgene Avilomics Research, Inc., priority 2013, dated 2016)
Like-named read-outs stand apart in the source and are kept apart here.

Assays:
Assay in all cases: HotSpot kinase profiling
Assay type in all cases: biochemical
TYK2 = molecular target: T1, TYK2 (Homo sapiens, UniProt P29597)
T1 construct: purchased Reaction Biology Corp
Summary of the method: (§1)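 Percent inhibition, averaged when run more than once and referenced to a DMSO negative control, came from a radioactive filter-binding readout on P81 paper. Reactions of kinase with freshly made substrate and cofactors ran for 2 h at room temperature.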

AKT3 = molecular target: T2, AKT3 (Homo sapiens, UniProt Q9Y243)
T2 construct: purchased Reaction Biology Corp
T2 sequence (Q9Y243 whole entry): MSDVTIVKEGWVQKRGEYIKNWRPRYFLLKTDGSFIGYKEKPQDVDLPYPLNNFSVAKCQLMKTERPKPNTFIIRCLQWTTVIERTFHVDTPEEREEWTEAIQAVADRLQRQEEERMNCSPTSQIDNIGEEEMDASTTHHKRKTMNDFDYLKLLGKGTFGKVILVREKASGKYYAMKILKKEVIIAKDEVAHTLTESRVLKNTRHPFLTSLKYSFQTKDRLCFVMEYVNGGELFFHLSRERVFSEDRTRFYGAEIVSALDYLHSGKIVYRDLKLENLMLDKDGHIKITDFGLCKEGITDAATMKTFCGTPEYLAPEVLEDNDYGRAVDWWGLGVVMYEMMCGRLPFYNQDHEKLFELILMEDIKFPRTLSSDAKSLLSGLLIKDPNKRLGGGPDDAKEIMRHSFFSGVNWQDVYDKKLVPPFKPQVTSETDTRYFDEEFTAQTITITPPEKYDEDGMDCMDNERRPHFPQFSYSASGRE
Summary of the method: as §1

GSK3b = molecular target: T3, GSK3b (Homo sapiens, UniProt P49841)
T3 construct: purchased Reaction Biology Corp
T3 sequence (P49841 whole entry): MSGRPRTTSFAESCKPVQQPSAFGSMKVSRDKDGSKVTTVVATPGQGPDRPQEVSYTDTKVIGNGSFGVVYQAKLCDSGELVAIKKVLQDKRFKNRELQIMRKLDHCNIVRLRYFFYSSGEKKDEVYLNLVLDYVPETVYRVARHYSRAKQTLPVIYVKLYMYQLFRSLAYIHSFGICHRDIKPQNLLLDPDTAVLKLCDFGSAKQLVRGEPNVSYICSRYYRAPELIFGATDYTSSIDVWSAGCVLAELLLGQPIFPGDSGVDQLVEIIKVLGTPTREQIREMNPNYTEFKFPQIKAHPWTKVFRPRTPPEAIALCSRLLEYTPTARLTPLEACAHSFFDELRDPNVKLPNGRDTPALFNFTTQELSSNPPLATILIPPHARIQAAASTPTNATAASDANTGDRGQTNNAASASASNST
Summary of the method: as §1

PKCeta = molecular target: T4, PKCeta (Homo sapiens, UniProt P24723)
T4 construct: purchased Reaction Biology Corp
Summary of the method: as §1

FGR = molecular target: T5, FGR (Homo sapiens, UniProt P09769)
T5 construct: purchased Reaction Biology Corp
T5 sequence (P09769 whole entry): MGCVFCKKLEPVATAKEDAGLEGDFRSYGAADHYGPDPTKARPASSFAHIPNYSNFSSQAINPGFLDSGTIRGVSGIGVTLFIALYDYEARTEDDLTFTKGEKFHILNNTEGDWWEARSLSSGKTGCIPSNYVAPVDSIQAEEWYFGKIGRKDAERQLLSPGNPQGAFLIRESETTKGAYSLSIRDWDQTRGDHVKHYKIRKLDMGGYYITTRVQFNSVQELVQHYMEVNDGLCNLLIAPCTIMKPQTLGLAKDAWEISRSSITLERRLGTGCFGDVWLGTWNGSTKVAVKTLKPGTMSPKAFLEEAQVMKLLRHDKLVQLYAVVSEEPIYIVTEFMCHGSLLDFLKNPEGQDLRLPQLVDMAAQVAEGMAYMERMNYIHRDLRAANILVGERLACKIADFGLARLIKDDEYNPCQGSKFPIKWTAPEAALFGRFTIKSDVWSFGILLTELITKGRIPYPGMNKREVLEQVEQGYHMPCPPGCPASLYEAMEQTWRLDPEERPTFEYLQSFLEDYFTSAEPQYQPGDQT
Summary of the method: as §1

CDK5/p25 = molecular target: T6, CDK5/p25 (Homo sapiens, UniProt Q00535)
T6 construct: purchased Reaction Biology Corp
T6 sequence (Q00535 whole entry): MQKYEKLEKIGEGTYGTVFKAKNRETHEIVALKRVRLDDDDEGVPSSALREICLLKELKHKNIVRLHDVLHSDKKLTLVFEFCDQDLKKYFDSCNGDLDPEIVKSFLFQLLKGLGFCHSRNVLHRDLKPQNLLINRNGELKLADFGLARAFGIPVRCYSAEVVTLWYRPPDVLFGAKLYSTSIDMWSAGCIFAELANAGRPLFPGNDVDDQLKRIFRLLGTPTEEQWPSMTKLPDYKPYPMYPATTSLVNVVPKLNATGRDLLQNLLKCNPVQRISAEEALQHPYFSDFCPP
T6 sequence (Q15078 99-307 partner limits assumed): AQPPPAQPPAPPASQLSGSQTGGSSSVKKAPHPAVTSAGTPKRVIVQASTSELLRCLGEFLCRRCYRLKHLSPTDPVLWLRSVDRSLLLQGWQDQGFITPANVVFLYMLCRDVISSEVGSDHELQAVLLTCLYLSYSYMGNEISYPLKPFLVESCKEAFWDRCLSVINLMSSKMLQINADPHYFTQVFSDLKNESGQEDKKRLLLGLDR
Summary of the method: as §1

c-Src = molecular target: T7, c-Src (Homo sapiens, UniProt P12931)
T7 construct: purchased Reaction Biology Corp
T7 sequence (P12931 whole entry): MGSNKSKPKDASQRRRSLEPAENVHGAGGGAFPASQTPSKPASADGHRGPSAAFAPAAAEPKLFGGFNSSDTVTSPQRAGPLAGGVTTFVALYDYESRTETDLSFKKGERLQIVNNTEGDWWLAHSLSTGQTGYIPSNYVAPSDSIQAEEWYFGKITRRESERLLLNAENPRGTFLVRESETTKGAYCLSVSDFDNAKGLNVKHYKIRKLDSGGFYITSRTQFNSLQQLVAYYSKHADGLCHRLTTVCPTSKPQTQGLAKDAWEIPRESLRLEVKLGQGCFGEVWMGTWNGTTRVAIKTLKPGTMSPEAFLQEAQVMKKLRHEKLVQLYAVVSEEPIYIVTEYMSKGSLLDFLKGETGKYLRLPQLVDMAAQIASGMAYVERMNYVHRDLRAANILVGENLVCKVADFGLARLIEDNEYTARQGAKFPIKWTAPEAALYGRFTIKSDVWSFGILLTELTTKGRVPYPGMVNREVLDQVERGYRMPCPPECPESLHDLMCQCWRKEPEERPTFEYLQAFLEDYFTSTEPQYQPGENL
Summary of the method: as §1

MEK2 = molecular target: T8, MEK2 (Homo sapiens, UniProt P36507)
T8 construct: purchased Reaction Biology Corp
T8 sequence (P36507 whole entry): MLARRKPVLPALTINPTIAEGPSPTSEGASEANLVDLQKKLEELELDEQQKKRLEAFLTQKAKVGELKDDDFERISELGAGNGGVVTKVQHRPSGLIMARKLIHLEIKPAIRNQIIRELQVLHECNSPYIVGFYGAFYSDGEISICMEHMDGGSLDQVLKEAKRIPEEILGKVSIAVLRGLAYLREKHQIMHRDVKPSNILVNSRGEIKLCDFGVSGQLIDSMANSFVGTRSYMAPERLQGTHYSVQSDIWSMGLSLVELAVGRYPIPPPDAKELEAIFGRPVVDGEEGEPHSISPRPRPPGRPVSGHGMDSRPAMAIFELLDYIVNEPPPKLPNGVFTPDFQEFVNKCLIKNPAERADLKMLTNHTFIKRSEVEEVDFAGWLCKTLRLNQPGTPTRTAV
Summary of the method: as §1

AKT1 = molecular target: T9, AKT1 (Homo sapiens, UniProt P31749)
T9 construct: purchased Reaction Biology Corp
T9 sequence (P31749 whole entry): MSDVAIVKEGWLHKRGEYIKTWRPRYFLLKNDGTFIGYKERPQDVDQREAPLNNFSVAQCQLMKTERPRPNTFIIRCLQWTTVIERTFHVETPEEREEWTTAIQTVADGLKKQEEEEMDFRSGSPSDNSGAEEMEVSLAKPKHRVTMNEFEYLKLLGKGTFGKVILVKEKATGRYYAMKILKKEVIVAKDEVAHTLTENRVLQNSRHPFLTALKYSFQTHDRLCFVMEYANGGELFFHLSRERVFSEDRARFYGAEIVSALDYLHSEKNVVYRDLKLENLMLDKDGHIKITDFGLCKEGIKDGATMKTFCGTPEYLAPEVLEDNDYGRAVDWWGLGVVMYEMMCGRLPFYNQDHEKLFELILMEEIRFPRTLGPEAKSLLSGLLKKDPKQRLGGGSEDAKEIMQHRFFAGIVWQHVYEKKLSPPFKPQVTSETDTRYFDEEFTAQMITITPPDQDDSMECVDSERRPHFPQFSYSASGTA
Summary of the method: as §1

ARK5/NUAK1 = molecular target: T10, ARK5/NUAK1 (Homo sapiens, UniProt O60285)
T10 construct: purchased Reaction Biology Corp
T10 sequence (O60285 1-661): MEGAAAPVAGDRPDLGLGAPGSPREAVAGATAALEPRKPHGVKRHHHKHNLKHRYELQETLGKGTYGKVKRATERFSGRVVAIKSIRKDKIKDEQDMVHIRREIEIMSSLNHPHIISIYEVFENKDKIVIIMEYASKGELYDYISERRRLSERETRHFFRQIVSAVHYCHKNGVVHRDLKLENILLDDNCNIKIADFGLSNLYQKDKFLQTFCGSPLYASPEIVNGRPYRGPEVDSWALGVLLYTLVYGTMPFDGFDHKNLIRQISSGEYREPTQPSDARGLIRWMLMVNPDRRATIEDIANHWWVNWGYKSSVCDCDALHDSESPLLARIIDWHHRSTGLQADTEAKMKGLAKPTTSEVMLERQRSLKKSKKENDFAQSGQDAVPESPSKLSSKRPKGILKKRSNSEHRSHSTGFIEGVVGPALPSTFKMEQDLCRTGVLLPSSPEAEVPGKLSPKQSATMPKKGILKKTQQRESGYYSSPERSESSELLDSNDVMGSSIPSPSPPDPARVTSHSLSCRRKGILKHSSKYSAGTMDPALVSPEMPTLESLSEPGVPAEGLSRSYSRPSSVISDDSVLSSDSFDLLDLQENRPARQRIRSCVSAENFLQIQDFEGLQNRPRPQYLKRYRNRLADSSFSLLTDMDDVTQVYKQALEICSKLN
Summary of the method: as §1

[1] = read-out: % Enzyme Activity (relative to DMSO controls) Run 1
[2] = read-out: % Enzyme Activity (relative to DMSO controls) Run 2

T1 sequence (P29597 whole entry): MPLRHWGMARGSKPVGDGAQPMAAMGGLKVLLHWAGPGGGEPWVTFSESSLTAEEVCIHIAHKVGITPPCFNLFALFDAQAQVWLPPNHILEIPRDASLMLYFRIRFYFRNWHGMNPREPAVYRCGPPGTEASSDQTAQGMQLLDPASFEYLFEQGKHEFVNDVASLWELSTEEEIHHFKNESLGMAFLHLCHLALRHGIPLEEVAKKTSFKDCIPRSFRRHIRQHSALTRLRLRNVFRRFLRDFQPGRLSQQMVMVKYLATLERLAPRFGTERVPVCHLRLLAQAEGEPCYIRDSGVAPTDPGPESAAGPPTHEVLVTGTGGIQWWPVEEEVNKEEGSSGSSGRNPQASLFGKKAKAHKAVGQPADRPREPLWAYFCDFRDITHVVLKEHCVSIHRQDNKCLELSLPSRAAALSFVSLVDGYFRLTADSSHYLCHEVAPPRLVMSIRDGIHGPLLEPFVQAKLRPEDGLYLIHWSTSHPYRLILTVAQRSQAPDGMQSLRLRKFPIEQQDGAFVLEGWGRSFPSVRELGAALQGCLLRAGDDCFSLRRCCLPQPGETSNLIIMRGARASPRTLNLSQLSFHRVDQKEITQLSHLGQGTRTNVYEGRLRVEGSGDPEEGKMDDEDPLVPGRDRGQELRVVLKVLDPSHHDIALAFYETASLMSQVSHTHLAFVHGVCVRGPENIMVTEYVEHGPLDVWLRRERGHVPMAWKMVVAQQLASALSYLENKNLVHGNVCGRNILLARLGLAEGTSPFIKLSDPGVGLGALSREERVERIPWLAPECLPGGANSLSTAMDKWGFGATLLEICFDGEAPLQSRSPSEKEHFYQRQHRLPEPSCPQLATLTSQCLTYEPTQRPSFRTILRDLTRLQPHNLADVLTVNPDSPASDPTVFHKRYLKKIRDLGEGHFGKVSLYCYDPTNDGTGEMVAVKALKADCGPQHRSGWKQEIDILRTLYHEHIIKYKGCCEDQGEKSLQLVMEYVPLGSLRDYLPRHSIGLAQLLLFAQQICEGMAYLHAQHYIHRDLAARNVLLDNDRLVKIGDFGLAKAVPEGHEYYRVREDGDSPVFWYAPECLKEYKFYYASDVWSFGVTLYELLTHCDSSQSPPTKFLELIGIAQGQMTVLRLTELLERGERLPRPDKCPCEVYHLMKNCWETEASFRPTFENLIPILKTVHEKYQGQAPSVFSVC

Which results are given for C=CC(=O)Nc1cccc(Nc2nc(Nc3ccc(OCCOC)c(F)c3)ncc2F)c1 [Compound 2]?
inhibition at 3 µM (TYK2): 52.6%; remaining activity at 3 µM (TYK2; [1]): 48.2%; remaining activity at 3 µM (TYK2; [2]): 46.6%; inhibition at 3 µM (AKT3): -6.85%; remaining activity at 3 µM (AKT3; [1]): 111%; remaining activity at 3 µM (AKT3; [2]): 103%; inhibition at 3 µM (GSK3b): -22.2%; remaining activity at 3 µM (GSK3b; [1]): 122%; remaining activity at 3 µM (GSK3b; [2]): 123%; inhibition at 3 µM (PKCeta): -12.8%; remaining activity at 3 µM (PKCeta; [1]): 109%; remaining activity at 3 µM (PKCeta; [2]): 117%; inhibition at 3 µM (FGR): 59.9%; remaining activity at 3 µM (FGR; [1]): 39.7%; remaining activity at 3 µM (FGR; [2]): 40.5%; inhibition at 3 µM (CDK5/p25): 9.1%; remaining activity at 3 µM (CDK5/p25; [1]): 89.5%; remaining activity at 3 µM (CDK5/p25; [2]): 92.3%; inhibition at 3 µM (c-Src): 72%; remaining activity at 3 µM (c-Src; [1]): 28.2%; remaining activity at 3 µM (c-Src; [2]): 27.9%; inhibition at 3 µM (MEK2): -5.66%; remaining activity at 3 µM (MEK2; [1]): 106%; remaining activity at 3 µM (MEK2; [2]): 105%; inhibition at 3 µM (AKT1): 5.87%; remaining activity at 3 µM (AKT1; [1]): 95.1%; remaining activity at 3 µM (AKT1; [2]): 93.1%; inhibition at 3 µM (ARK5/NUAK1): 86.7%; remaining activity at 3 µM (ARK5/NUAK1; [1]): 13.3%; remaining activity at 3 µM (ARK5/NUAK1; [2]): 13.3%
